Laboratory results taken from the NIST ThermoML archive (doi:10.1016/j.tca.2010.11.013).

Assay: wn = mass fraction of the nth substance listed
Settings: 101 kPa, Liquid; for speed of sound: Sing-around technique in a fixed-path interferometer; for mass density: Vibrating tube method

O=C(CO)[C@@H](O)[C@H](O)[C@H](O)CO [D-fructose] + O
Settings | mass density, 288.15 K [kg/m3] | mass density, 293.15 K [kg/m3] | mass density, 298.15 K [kg/m3] | mass density, 303.15 K [kg/m3] | mass density, 308.15 K [kg/m3] | speed of sound, 288.15 K [m/s] | speed of sound, 293.15 K [m/s] | speed of sound, 298.15 K [m/s] | speed of sound, 303.15 K [m/s] | speed of sound, 308.15 K [m/s]
w1 = 0.0209 | – | – | 1005.17 | 1003.7 | 1002.02 | 1476.2 | 1492 | – | 1517.3 | 1527
w1 = 0.0389 | 1014.62 | 1013.56 | 1012.26 | – | 1009 | 1483.1 | 1498.5 | 1512 | – | 1533.2
w1 = 0.0611 | 1023.64 | 1022.5 | 1021.11 | 1019.51 | 1017.71 | – | 1507.8 | 1520.8 | 1531.8 | –

OC[C@H]1O[C@@](CO)(O[C@H]2O[C@H](CO)[C@@H](O)[C@H](O)[C@H]2O)[C@@H](O)[C@@H]1O [D-sucrose] + O
Settings | mass density, 288.15 K [kg/m3] | mass density, 293.15 K [kg/m3] | mass density, 298.15 K [kg/m3] | mass density, 303.15 K [kg/m3] | mass density, 308.15 K [kg/m3] | speed of sound, 288.15 K [m/s] | speed of sound, 293.15 K [m/s] | speed of sound, 298.15 K [m/s] | speed of sound, 303.15 K [m/s] | speed of sound, 308.15 K [m/s]
w1 = 0.0214 | 1007.5 | 1006.55 | 1005.34 | 1003.89 | 1002.24 | 1473.1 | 1489 | 1503 | 1515.1 | 1525.3
w1 = 0.0419 | 1015.59 | 1014.59 | 1013.33 | 1011.85 | 1010.16 | 1479.3 | 1495.1 | 1508.8 | 1520.5 | 1530.4
w1 = 0.0614 | 1023.45 | 1022.4 | 1021.1 | 1019.58 | 1017.85 | 1486.3 | 1501.8 | 1515.3 | 1526.8 | 1536.7
